Measurements: a melting point compilation (Tetko et al.; mined from patent text by program, amines drawn as free bases though some values may be those of a salt)

| melting point [°C] | SMILES |
| --- | --- |
| 118 to 120 | CC1(C)C2CC[C@]1(C)C(=O)C(C(=O)Nc1ccc(Cl)c(C(F)(F)F)c1)C2=O (stereo not given in full) |
| 114 to 116 | CSC(=S)N1Cc2[nH]c3ccccc3c2CC1CO (stereo not given) |
| 106 | CC(C)OC(=O)N[C@H](C(=O)N[C@H](CN)C(C)C)C(C)C |
| 106 to 109 | CS(=O)(=O)c1cc(N)ccc1OC(F)(F)F |
| 308 to 313 | CCOC(=O)c1cc2c(cn1)[nH]c1ccc(Br)cc12 |
| 156 | C#CCC(CC#C)(C(=O)O)S(=O)(=O)c1ccc(OC)cc1 |
| 103 to 104 | OCCc1ccc2cc(Br)ccc2n1 |
| 169 | CCCOc1ccc(S(=O)(=O)N2CCOCC2)cc1-c1nc2c([nH]1)c1nncn1c(=O)n2CCC |
| 129 to 131 | C[Si](C)(C)c1cccc(Cl)c1C(=O)O |
| 176 to 178 | Cc1c(=O)n(Cc2ccccc2)c(=O)n2cc(C(=O)NCc3ccccc3)sc12 |
| 144 to 146 | O=C(NCC1CN(Cc2ccccc2)CCO1)c1cccc2c1OCO2 (stereo not given) |
| 175 to 176 | CC(C)N(CCCC1CCN(CCNC(=O)N2c3cc(Cl)ccc3C(=O)Nc3cccnc32)CC1)C(C)C |
| 200 to 201 | Cc1oc(-c2ccc(C(F)(F)F)cc2)cc1C(=O)Nc1cccc(CCC(=O)O)c1 |
| > 350 | O=c1[nH]ccc2c1c(O)nc1cc(Cl)c(Cl)cc12 |
| > 300 | COc1cc(OC)c2c(=O)[nH]c(-c3cccc(-c4ccc(S(C)=O)cc4)c3)nc2c1 (stereo not given) |
| 180 to 181 | Cc1cc(C2CCN(S(=O)(=O)C3(C(=O)NO)CCN(C(=O)OC(C)(C)C)CC3)CC2)ccc1-c1cccc(OCCO)n1 |
| 143 to 147 | CCCc1c(CSc2nnc(N)s2)ccc(C(C)=O)c1O |
| 305 to 315 | Cn1c2cc(Cl)ccc2c2c(CC#N)nn(-c3ccccc3)c(=O)c21 |
| 186 to 188 | CCCCNC(=S)N1CCc2cc(S(=O)(=O)N3CC(c4ccccc4)NC3=O)ccc21 (stereo not given) |
| 246 to 248 | Cc1cc2ncc(C(=O)O)c(N(C)S(=O)(=O)c3ccc(Oc4ccncc4)cc3)n2n1 |

| melting point [°C] | SMILES |
| --- | --- |
| 162 to 165 | C#Cc1cn(C2CC(O)C(CO)O2)c(=O)nc1N (stereo not given) |
| 122 to 124 | Brc1ccc(C2CCN(C3CCC3)CC2)nc1 |
| 116 to 118 | CC(C)Cc1nc2ccc(Br)cc2c(-c2ccccc2)c1CO |
| 158 to 159 | O=C(O)c1ccc(F)cc1NS(=O)(=O)c1ccccc1 |
| 190 to 194 | c1ccc(N2CCN(CCc3nnn[nH]3)CC2)cc1 |
| 65 | CC(C)(C)SC1CC(=O)N1CC(=O)CCc1ccccc1 (stereo not given) |
| 45.5 to 46.6 | CC(=O)OCC(=O)COC(C)=O |
| 153 to 155 | Cc1cc(Cc2ccsc2)c(NC(=O)OCc2ccccc2)c(=O)n1CC(=O)O |
| 130 to 145 | CC(=O)Nc1c(C(=O)c2cccc(O)c2)[nH]c2cc(Cl)ccc12 |
| 228 | O=C(O)CCc1[nH]c2cc(Cl)cc(Cl)c2c1Br |
| 207 to 209 | CCOC(=O)Nc1cc(=O)c2cc(Oc3ccccc3)c(NS(C)(=O)=O)cc2o1 |
| 159 to 161 | CC(=O)c1ccc(S(=O)(=O)n2c(CCC(=O)O)cc3cc(Cl)ccc32)cc1 |
| 98 | CCc1cccc(-c2ccc(S(=O)(=O)N3c4ccccc4CC3C(=O)NCc3ccc(CC(=O)O)cc3)cc2)c1 (stereo not given) |
| 147 to 148 | c1ccc(CCN2CCN(c3n[nH]c4c3CCCc3ccccc3-4)CC2)cc1 |
| 221 to 224 | O=C(O)c1cc(=O)c2cccc(COc3ccc(OCc4ccc5ccccc5n4)cc3)c2o1 |
| 190 to 192 | Cc1sc2ccc(Cl)cc2c1C1=NCCN1 |
| 156 to 163 | Cc1nc(Nc2ccc(F)c(Cl)c2)c2nc(N3CCC(N)CC3)ncc2n1 |
| > 250 | COc1ccc2ncc(C#N)c(Nc3ccc4nn[nH]c4c3)c2c1 |
| 155 to 156 | CCOP(=O)(Cc1ccc(NC(=O)/C=C/c2c(C)noc2-c2ccccc2)cc1)OCC |

| SMILES | melting point [°C] |
| --- | --- |
| CN1CCC23c4cccc(O)c4OC2C2CCC3(CC2)C1 (stereo not given) | 174 to 176 |
